Among the data in patent publication US9067934B2, “Bicyclic pyridinones” (Pfizer Inc., priority 2011, dated 2015) are IC50 values, retold here.

The assay relates to production of amyloid beta protein Aβ(1-42) (γ-secretase) in human WT-APP overexpressing CHO cells. Description: Cell-Based γ-Secretase Assay with ELISA Readout. The conditions noted are these: human WT-APP overexpressing CHO cells, ~24 hours at 37° C., Aβ(1-42) ELISA; footnotes: a = geometric mean of >15 determinations, b = single determination, c = geometric mean of 7-15 determinations; read-out: Aβ 42B IC50 (Geometric Mean of 2-6 Determinations). The protocol: Cell-Based γ-Secretase Assay with ELISA Readout
The ability of compounds to modulate production of amyloid beta protein Aβ(1-42) was determined using human WT-APP overexpressing CHO cells. Cells were plated at 22,000 cells/100 μL well in 96 well tissue culture treated, clear plates (Falcon) in DMEM/F12 based medium and incubated for 24 hours at 37° C. Compounds for testing were diluted in 100% DMSO to achieve an eleven points, half log, dose response for IC50 determinations. Compounds were added in fresh medium to achieve 1% final DMSO. Appropriate vehicle or inhibitor controls were added into control wells individually to obtain minimum or maximum inhibition values, respectively, for the assay signal window before the plates were incubated for ˜24 hours at 37° C. This procedure produces conditioned media in each well which is tested for Aβ(1-42) levels in the ELISA detection step described next. The remaining cell cultures in each well are also tested for cell toxicity as described below.
Coating of ELISA assay plates was initiated by addition of 50 μL/well of an in-house Aβ(1-42) specific antibody at (3 μg/mL) in 0.1 M NaHCO3 (pH 9.0) into black 384-well Maxisorp® plates (Nunc) and incubated overnight at 4° C. The capture antibody was then aspirated from the ELISA assay plates and plates were washed 4×100 μL with Wash Buffer (Dulbecco's PBS, 0.05% Tween 20). 90 μL/well of Blocking Buffer (Dulbecco's PBS, 1.0% BSA (Sigma A7030)) was then added to plates. Ambient temperature incubation was allowed to proceed for a minimum of two hours. Blocking buffer was then removed and 20 μL/well Assay Buffer (Dulbecco's PBS, 1.0% BSA (Sigma A7030), 0.05% Tween 20) was then added. At this point, 40 μL (in duplicate) of experimental conditioned media (described above) were transferred into wells of the blocked ELISA plates containing the capture antibody, followed by overnight incubation at 4° C. Cell toxicity was also measured in the corresponding remaining cells after removal of the conditioned media for the Aβ(1-42) assay by a colorimetric cell proliferation assay (CellTiter 96® AQueous One Solution Cell Proliferation Assay, Promega) according to the manufacturer's instructions.
After overnight incubation of the ELISA assay plates at 4° C., unbound Aβ peptides were removed via (4×100 μL) washes with Wash Buffer. Europium (Eu) labeled (custom labeled, Perkin Elmer) Aβ(1-16) 6e10 Monoclonal Antibody (Covance #SIG-39320) was added, (50 μL/well Eu-6e10 @ 1:10,000, 20 uM EDTA) in Assay Buffer. Incubation at ambient temperature for a minimum of 2 hours was followed by (4×100 μL) washes with Wash Buffer, before 30 μL/well of Delfia Enhancement Solution (Perkin Elmer) was added. Following an one hour ambient temperature incubation, the plates were read on an EnVision plate reader (Perkin Elmer) using standard DELFIA TRF settings. Data analysis including inhibitory IC50 determination was performed using nonlinear regression fit analysis (in-house software) and the appropriate plate mean values for the maximum and minimum inhibition controls.
Background: ELISA stands for enzyme-linked immunosorbent assay.

In general, IC50 refers to the concentration that inhibits the measured activity by half. In the case of `Cc1cn(-c2ccc3n(c2=O)CCN(C(C)C(C)Oc2ccccc2S(F)(F)(F)(F)F)C3=O)cn1` (single isomer, unassigned) [Example 124, 7-(4-methyl-1H-imidazol-1-yl)-2-{3-[2-(pentafluoro-λ^6-sulfanyl)phenoxy]butan-2-yl}-3,4-dihydro-2H-pyrido[1,2-a]pyrazine-1,6-dione], the IC50 came to 2310 nM.
The same measure for `Cc1cn(-c2ccc3n(c2=O)CCN(C(C)C(C)Oc2ccccc2S(F)(F)(F)(F)F)C3=O)cn1` (single isomer, unassigned) [Example 125, 7-(4-methyl-1H-imidazol-1-yl)-2-{3-[2-(pentafluoro-λ^6-sulfanyl)phenoxy]butan-2-yl}-3,4-dihydro-2H-pyrido[1,2-a]pyrazine-1,6-dione]: 653 nM.
As to `Cc1cn(-c2ccc3n(c2=O)CCN(C(C)C(C)Oc2ccccc2S(F)(F)(F)(F)F)C3=O)cn1` (single isomer, unassigned) [Example 126, 7-(4-methyl-1H-imidazol-1-yl)-2-{3-[2-(pentafluoro-λ^6-sulfanyl)phenoxy]butan-2-yl}-3,4-dihydro-2H-pyrido[1,2-a]pyrazine-1,6-dione], the IC50 was 20.1 nM.
The same measure for `Cc1cn(-c2ccc3n(c2=O)CCN(C(C)C(C)Oc2ccccc2S(F)(F)(F)(F)F)C3=O)cn1` (single isomer, unassigned) [Example 127, 7-(4-methyl-1H-imidazol-1-yl)-2-{3-[2-(pentafluoro-λ^6-sulfanyl)phenoxy]butan-2-yl}-3,4-dihydro-2H-pyrido[1,2-a]pyrazine-1,6-dione]: 1070 nM; for `Cc1cn(-c2ccc3n(c2=O)CCN(CCOc2ccc(F)cc2C(F)(F)F)C3=O)cn1` [Example 1, 2-{2-[4-Fluoro-2-(trifluoromethyl)phenoxy]ethyl}-7-(4-methyl-1H-imidazol-1-yl)-3,4-dihydro-2H-pyrido[1,2-a]pyrazine-1,6-dione]: 256 nM.
For `Cc1ncc(-c2ccc3n(c2=O)CCN(CCOc2cccc4ccc(F)cc24)C3=O)o1` [Example 2, 2-{2-[(7-Fluoronaphthalen-1-yl)oxy]ethyl}-7-(2-methyl-1,3-oxazol-5-yl)-3,4-dihydro-2H-pyrido[1,2-a]pyrazine-1,6-dione] the value was 434 nM; for `Cc1cn(-c2ccc3n(c2=O)CCN(CCOc2cccc4ccccc24)C3=O)cn1` [Example 3, 7-(4-methyl-1H-imidazol-1-yl)-2-[2-(1-naphthyloxy)ethyl]-3,4-dihydro-2H-pyrido[1,2-a]pyrazine-1,6-dione], 86 nM; for `Cc1cn(-c2ccc3n(c2=O)CCN(CC(C)(C)Oc2cccc(Cl)c2Cl)C3=O)cn1` [Example 4, 2-[2-(2,3-dichlorophenoxy)-2-methylpropyl]-7-(4-methyl-1H-imidazol-1-yl)-3,4-dihydro-2H-pyrido[1,2-a]pyrazine-1,6-dione], 146 nM.
For the molecule `Cc1cn(-c2ccc3n(c2=O)CCN(CC(C)Oc2ccc(C(F)(F)F)cc2)C3=O)cn1` (stereo not drawn) [Example 5, 7-(4-methyl-1H-imidazol-1-yl)-2-{2-[4-(trifluoromethyl)phenoxy]propyl}-3,4-dihydro-2H-pyrido[1,2-a]pyrazine-1,6-dione], the IC50 stood at 996 nM.
The same measure for `Cc1cn(-c2ccc3n(c2=O)CCN(CCOc2ccc(Cl)c4ccccc24)C3=O)cn1` [Example 6, 2-{2-[(4-chloro-1-naphthyl)oxy]ethyl}-7-(4-methyl-1H-imidazol-1-yl)-3,4-dihydro-2H-pyrido[1,2-a]pyrazine-1,6-dione]: 36.5 nM.
For `COc1ccc2cccc(OCCN3CCn4c(ccc(-n5cnc(C)c5)c4=O)C3=O)c2c1` [Example 7, 2-{2-[(7-methoxy-1-naphthyl)oxy]ethyl}-7-(4-methyl-1H-imidazol-1-yl)-3,4-dihydro-2H-pyrido[1,2-a]pyrazine-1,6-dione] the value was 42 nM.
The same measure for `COc1ccc(OCCN2CCn3c(ccc(-n4cnc(C)c4)c3=O)C2=O)c2ccccc12` [Example 8, 2-{2-[(4-methoxy-1-naphthyl)oxy]ethyl}-7-(4-methyl-1H-imidazol-1-yl)-3,4-dihydro-2H-pyrido[1,2-a]pyrazine-1,6-dione]: 93 nM.
`Cc1cn(-c2ccc3n(c2=O)CCN(CCOc2ccc(Cl)c4c2CCC4)C3=O)cn1` [Example 9, 2-{2-[(7-chloro-2,3-dihydro-1H-inden-4-yl)oxy]ethyl}-7-(4-methyl-1H-imidazol-1-yl)-3,4-dihydro-2H-pyrido[1,2-a]pyrazine-1,6-dione]: the IC50 turned out to be 83.9 nM.
The same measure for `Cc1cn(-c2ccc3n(c2=O)CCN(CCOc2cc(Cl)cc(Cl)c2Cl)C3=O)cn1` [Example 10, 7-(4-methyl-1H-imidazol-1-yl)-2-[2-(2,3,5-trichlorophenoxy)ethyl]-3,4-dihydro-2H-pyrido[1,2-a]pyrazine-1,6-dione]: 127 nM; for `Cc1cn(-c2ccc3n(c2=O)CCN(CCOc2ccc(F)c4occc24)C3=O)cn1` [Example 11, 2-{2-[(7-fluoro-1-benzofuran-4-yl)oxy]ethyl}-7-(4-methyl-1H-imidazol-1-yl)-3,4-dihydro-2H-pyrido[1,2-a]pyrazine-1,6-dione]: 536 nM.
For `Cc1cn(-c2ccc3n(c2=O)CCN(CCOc2ccc(Cl)c(C(F)(F)F)c2)C3=O)cn1` [Example 12, 2-{2-[4-chloro-3-(trifluoromethyl)phenoxy]ethyl}-7-(4-methyl-1H-imidazol-1-yl)-3,4-dihydro-2H-pyrido[1,2-a]pyrazine-1,6-dione], the IC50 came out at 196 nM.
For the molecule `Cc1cn(-c2ccc3n(c2=O)CCN(CCOc2ccccc2C(C)(C)C)C3=O)cn1` [Example 13, 2-[2-(2-tert-butylphenoxy)ethyl]-7-(4-methyl-1H-imidazol-1-yl)-3,4-dihydro-2H-pyrido[1,2-a]pyrazine-1,6-dione], the IC50 came to 108 nM.
`Cc1cn(-c2ccc3n(c2=O)CCN(CCOc2cccc4c2CCCC4)C3=O)cn1` [Example 14, 7-(4-methyl-1H-imidazol-1-yl)-2-[2-(5,6,7,8-tetrahydronaphthalen-1-yloxy)ethyl]-3,4-dihydro-2H-pyrido[1,2-a]pyrazine-1,6-dione]: the IC50 worked out at 197 nM.
The same measure for `Cc1cn(-c2ccc3n(c2=O)CCN(CCOc2ccccc2OC(F)(F)F)C3=O)cn1` [Example 15, 7-(4-methyl-1H-imidazol-1-yl)-2-{2-[2-(trifluoromethoxy)phenoxy]ethyl}-3,4-dihydro-2H-pyrido[1,2-a]pyrazine-1,6-dione]: 275 nM; for `Cc1cn(-c2ccc3n(c2=O)CCN(CCOc2cccc4c2CCC4)C3=O)cn1` [Example 16, 2-[2-(2,3-dihydro-1H-inden-4-yloxy)ethyl]-7-(4-methyl-1H-imidazol-1-yl)-3,4-dihydro-2H-pyrido[1,2-a]pyrazine-1,6-dione]: 234 nM.
The same measure for `Cc1ccc(OCCN2CCn3c(ccc(-n4cnc(C)c4)c3=O)C2=O)c(Cl)c1` [Example 17, 2-[2-(2-chloro-4-methylphenoxy)ethyl]-7-(4-methyl-1H-imidazol-1-yl)-3,4-dihydro-2H-pyrido[1,2-a]pyrazine-1,6-dione]: 153 nM.
For `Cc1cn(-c2ccc3n(c2=O)CCN(CCOc2cccc(-c4ccccc4)c2)C3=O)cn1` [Example 18, 2-[2-(biphenyl-3-yloxy)ethyl]-7-(4-methyl-1H-imidazol-1-yl)-3,4-dihydro-2H-pyrido[1,2-a]pyrazine-1,6-dione] the value was 151 nM.
With `Cc1cn(-c2ccc3n(c2=O)CCN(CCOc2cccc(Oc4ccccc4)c2)C3=O)cn1` [Example 19, 7-(4-methyl-1H-imidazol-1-yl)-2-[2-(3-phenoxyphenoxy)ethyl]-3,4-dihydro-2H-pyrido[1,2-a]pyrazine-1,6-dione], the concentration for half-maximal inhibition (IC50) was 203 nM.
With `Cc1cn(-c2ccc3n(c2=O)CCN(CCOc2cccc(C(F)(F)F)c2Cl)C3=O)cn1` [Example 20, 2-{2-[2-chloro-3-(trifluoromethyl)phenoxy]ethyl}-7-(4-methyl-1H-imidazol-1-yl)-3,4-dihydro-2H-pyrido[1,2-a]pyrazine-1,6-dione], the 50% inhibitory concentration (IC50) came to 157 nM.
